Assay: solvent given as SMILES

SMILES: CC(C)(C)c1ccc2c(c1)c1cc(C(C)(C)C)ccc1n2-c1cc(C(=O)c2ccccn2)cc(-n2c3ccc(C(C)(C)C)cc3c3cc(C(C)(C)C)ccc32)c1
- absorption maximum (in Cc1ccccc1): 394 nm

SMILES: CC1(C)Nc2cc3nc4cc(Cl)c(Cl)cc4nc3cc2N1
- absorption maximum (in CCO): 471 nm

SMILES: O=C(c1cc(F)c(O)cc1F)c1cc(F)c(O)cc1F
- absorption maximum (in CCO): 306 nm

SMILES: COc1ccc(/C=C/C2=CC(c3ccccc3)=[O+][B-](F)(F)O2)cc1
- absorption maximum (in ClCCl): 444 nm

SMILES: C(=C\c1nc2ccccc2[nH]1)/c1ccc(-c2nc3c4cccnc4c4ncccc4c3[nH]2)cc1
- absorption maximum (in C1CCOC1): 381 nm
- absorption maximum (in CC#N): 376 nm
- absorption maximum (in CO): 375 nm
- absorption maximum (in ClCCl): 382 nm

SMILES: c1ccc2nc3cccc(-c4ccc(-n5c6ccccc6c6ccccc65)cc4)c3cc2c1
- absorption maximum (in C1CCOC1): 359 nm
- absorption maximum (in CC#N): 358 nm
- absorption maximum (in CC(C)=O): 358 nm
- absorption maximum (in CC(C)OC(C)C): 359 nm
- absorption maximum (in CCCCCC): 359 nm
- absorption maximum (in CCCCOCCCC): 359 nm
- absorption maximum (in CCOC(C)=O): 359 nm
- absorption maximum (in CCOCC): 358 nm

SMILES: c1ccc2c(c1)ncc1ccc3cnc4ccccc4c3c12
- absorption maximum (in CC#N): 397 nm

SMILES: CCOC(=O)c1c2c3c(cccc3c3cc4c(cc13)[Si](C)(C)O[Si]4(C)C)N(C)C2=O
- absorption maximum (in CC#N): 376 nm

SMILES: CN(C)c1ccc2cc3c(cc2c1)OCCN=C3
- absorption maximum (in C1CCOC1): 353 nm
- absorption maximum (in CC#N): 456 nm
- absorption maximum (in CC(C)O): 362 nm
- absorption maximum (in CCOC(C)=O): 354 nm
- absorption maximum (in CN(C)C=O): 362 nm
- absorption maximum (in CS(C)=O): 359 nm
- absorption maximum (in Cc1ccccc1): 355 nm
- absorption maximum (in ClCCl): 450 nm
- absorption maximum (in O): 451 nm

SMILES: CC1=[N+]2C(=C(c3ccc(Br)cc3)c3ccc(C)n3[B-]2(F)F)C=C1c1cc2n(c1)[B-](F)(F)[N+]1=CC=CC1=C2c1c(C)cc(C)cc1C
- absorption maximum (in C1CCCCC1): 598.5 nm
- absorption maximum (in CCOC(C)=O): 601.5 nm

SMILES: c1ccc2c(c1)ccc1ccc3c(c12)-c1c(ccc2ccc4ccccc4c12)C3
- absorption maximum (in ClCCl): 400 nm

SMILES: C(=C\c1cc(-c2ccc3ccccc3c2)c(/C=C/c2ccc(N(c3ccccc3)c3ccccc3)cc2)cc1-c1ccc2ccccc2c1)/c1ccc(N(c2ccccc2)c2ccccc2)cc1
- absorption maximum (in ClCCl): 419 nm

SMILES: CCn1c2ccccc2c2cc(-c3cc(-c4ccc5c(c4)c4ccccc4n5CC)nc(S(C)(=O)=O)n3)ccc21
- absorption maximum (in C1CCOC1): 381 nm
- absorption maximum (in CCOC(C)=O): 378 nm
- absorption maximum (in CN(C)C=O): 384 nm
- absorption maximum (in Cc1ccccc1): 382 nm
- absorption maximum (in ClCCl): 384 nm

SMILES: Cc1cc(C)c(B(c2cc(-c3c(C)cc(C)cc3C)sc2-c2sc(-c3c(C)cc(C)cc3C)cc2P(=O)(c2ccccc2)c2ccccc2)c2c(C)cc(C)cc2C)c(C)c1
- absorption maximum (in CO): 370 nm

SMILES: O=c1c2cc(F)c(O)cc2n(Cc2ccccc2)c2cc(O)c(F)cc12
- absorption maximum (in CCO): 381 nm

SMILES: N#Cc1cc(-c2ccc(/C=C/c3ccc(N(c4ccccc4)c4ccccc4)cc3)c(C#N)c2)ccc1/C=C/c1ccc(N(c2ccccc2)c2ccccc2)cc1
- absorption maximum (in ClCCl): 428 nm

SMILES: C[Si]1(C)c2cc(-c3cccs3)ccc2C=Cc2ccc(-c3cccs3)cc21
- absorption maximum (in ClCCl): 408 nm

SMILES: CCC(C)(C)c1ccc2c(c1)C(CC)(CC)c1cc(-c3ccc4c(c3)C(CC)(CC)c3cc(C(C)(C)CC)ccc3-4)ccc1-2
- absorption maximum (in C1CCCCC1): 331 nm

SMILES: C(#Cc1ccc2ncsc2c1)c1ccc(N(c2ccc(C#Cc3ccc4ncsc4c3)cc2)c2ccc(C#Cc3ccc4ncsc4c3)cc2)cc1
- absorption maximum (in Cc1ccccc1): 380 nm

SMILES: ClP1(Cl)=N[P@@](Cl)(Oc2ccc3ccc4cccc5ccc2c3c45)=N[P@@](Cl)(Oc2ccc3ccc4cccc5ccc2c3c45)=N1
- absorption maximum (in ClCCl): 343 nm

SMILES: N#CC(C#N)=Cc1ccc(-c2ccc(O)c(-c3nc4ccccc4s3)c2)s1
- absorption maximum (in ClCCl): 427 nm
- absorption maximum (in O): 416 nm

SMILES: O=S(=O)([O-])c1ccccc1/C=C/c1ccc(-c2nnc(-c3ccc(/C=C/c4ccccc4S(=O)(=O)[O-])cc3)o2)cc1
- absorption maximum (in C1CCOC1): 346 nm
- absorption maximum (in CC(C)=O): 344 nm
- absorption maximum (in CN(C)C=O): 348 nm

SMILES: CN(C)c1ccc(C2=Nc3sc4c(F)c(F)c(F)c(F)c4[n+]3[B-](F)(F)O2)cc1
- absorption maximum (in C1CCOC1): 434 nm
- absorption maximum (in CC#N): 431 nm
- absorption maximum (in Cc1ccccc1): 431 nm
- absorption maximum (in ClCCl): 433 nm

SMILES: CCN(CC)c1ccc2cc(-c3csc(N)c3C#N)c(=O)oc2c1
- absorption maximum (in C1CCOC1): 403 nm
- absorption maximum (in CO): 406 nm
- absorption maximum (in CS(C)=O): 406 nm
- absorption maximum (in Cc1ccccc1): 403 nm
- absorption maximum (in ClCCl): 407 nm

SMILES: Fc1nc(F)c(F)c(C#Cc2cc3c(cc2C#Cc2c(F)c(F)nc(F)c2F)OC2(CCCCC2)O3)c1F
- absorption maximum (in CC#N): 360 nm

SMILES: C(=C(c1ccccc1)c1ccccc1)c1ccc(-c2ccc(C=C(c3ccccc3)c3ccccc3)cc2)cc1
- absorption maximum (in C1CCOC1): 351 nm

SMILES: N#CSc1ccc2n1[B-](F)(F)[N+]1=C(N3CCOCC3)C=CC1=C2c1ccccc1
- absorption maximum (in CC#N): 452 nm
- absorption maximum (in CCCCCC): 492 nm
- absorption maximum (in CCOC(C)=O): 464 nm
- absorption maximum (in CO): 458 nm
- absorption maximum (in ClCCl): 468 nm

SMILES: CCCCC1(c2ccccc2)Nc2c(-c3ccc(N(C)C)cc3)ccc(-c3ccc(N(C)C)cc3)c2N=C1c1ccccc1 (stereo not given)
- absorption maximum (in ClC(Cl)Cl): 371 nm

SMILES: CCN(CC)c1ccc2cc(-c3ccc(-c4ccc5ccc6c(-c7ccc(-c8cc9ccc(N(CC)CC)cc9oc8=O)cc7)ccc7ccc4c5c76)cc3)c(=O)oc2c1
- absorption maximum (in ClC(Cl)Cl): 412 nm

SMILES: O=C([O-])c1c(Cl)c(Cl)c(Cl)c(Cl)c1-c1c2cc(I)c(=O)c(I)c-2oc2c(I)c([O-])c(I)cc12
- absorption maximum (in CC(C)O): 561 nm
- absorption maximum (in CCO): 558 nm
- absorption maximum (in CO): 556 nm
- absorption maximum (in O): 548 nm

SMILES: CCCCCCN(CCCCCC)c1ccc(C#Cc2c(F)c(F)c(F)c(F)c2F)cc1
- absorption maximum (in CO): 357 nm
- absorption maximum (in ClCCl): 363 nm

SMILES: N#Cc1c(N2CCCCC2)cc(-c2ccccc2)c2c1-c1ccccc1C2
- absorption maximum (in C1CCOC1): 360 nm

SMILES: CCCCCCOc1ccc(N(c2ccc(OCCCCCC)cc2)c2ccc(-c3sc(-c4ccc(N(c5ccc(OCCCCCC)cc5)c5ccc(OCCCCCC)cc5)cc4)c4nc(CC)c(CC)nc34)cc2)cc1
- absorption maximum (in ClCCl): 532 nm

SMILES: C(=C\c1nc2c(c(N3CCOCC3)n1)CCCC2)/c1ccccc1
- absorption maximum (in ClCCl): 284 nm

SMILES: CC(C)c1cccc(C(C)C)c1N1C(=O)c2ccc3c4c(-c5ccc(C(=O)O)cc5)c5ccc6c7c(cc8c9cc(C(=O)O)ccc9c(c9ccc(c2c39)C1=O)c4c8c57)C(=O)N(c1c(C(C)C)cccc1C(C)C)C6=O
- absorption maximum (in ClCCl): 607 nm

SMILES: O=C([O-])c1ccc(C(=O)[O-])c2cc3ccccc3cc12
- absorption maximum (in CN(C)C=O): 396 nm

SMILES: O=c1oc2ccccc2cc1-c1cccc(-c2cc3ccccc3oc2=O)c1
- absorption maximum (in ClC(Cl)Cl): 330 nm

SMILES: COc1ccc(C(=O)/C=C2\C(=O)Nc3ccccc32)cc1
- absorption maximum (in C1COCCO1): 337 nm
- absorption maximum (in CC#N): 335 nm
- absorption maximum (in CC(C)(C)O): 345 nm
- absorption maximum (in CC(C)O): 345 nm
- absorption maximum (in CCCCO): 345 nm
- absorption maximum (in CCOC(C)=O): 339 nm
- absorption maximum (in CN(C)C=O): 344 nm
- absorption maximum (in CO): 343 nm
- absorption maximum (in ClCCl): 339 nm
- absorption maximum (in O): 347 nm

SMILES: Cc1ccccc1C1=C2C=c3c(oc4ccc(F)cc34)=[N+]2[B-](F)(F)n2c1cc1c3cc(F)ccc3oc12
- absorption maximum (in C1CCCCC1): 581.5 nm
- absorption maximum (in CCOC(C)=O): 576.5 nm
- absorption maximum (in CO): 574.5 nm

SMILES: CCN(CC)c1cccc(C=O)c1
- absorption maximum (in CC#N): 380 nm
- absorption maximum (in CC(C)O): 382 nm
- absorption maximum (in CCCCCC): 367 nm
- absorption maximum (in CCOC(C)=O): 376 nm
- absorption maximum (in CO): 382 nm
- absorption maximum (in CS(C)=O): 384 nm
- absorption maximum (in Cc1ccccc1): 380 nm
- absorption maximum (in ClCCl): 382 nm

SMILES: CN(C)c1ccc(/C=C/c2cccnn2)cc1
- absorption maximum (in C1CCOC1): 369 nm
- absorption maximum (in CC#N): 369 nm
- absorption maximum (in CS(C)=O): 380 nm
- absorption maximum (in ClCCl): 365 nm

SMILES: Cc1cc(C)c(C2=C3C=CC=[N+]3[B-]3(c4ccc5ccc6cccc7ccc4c5c67)Oc4cc(O)cc5c6ccc(C)cc6c6cc2n3c6c45)c(C)c1 (stereo not given)
- absorption maximum (in ClC(Cl)Cl): 647 nm

SMILES: CC(C)(C)c1cc2c3cc(C(C)(C)C)c(-c4cc5cc6c7cccc8cccc(c9cc(C(C)(C)C)cc(c5cc4C(C)(C)C)c96)c87)cc3cc3c4cccc5cccc(c(c1)c23)c54
- absorption maximum (in CC1CCCCC1): 446 nm

SMILES: Oc1ccccc1-c1nc2c3ccccc3c3ccccc3c2n1-c1ccccc1
- absorption maximum (in Cc1ccccc1): 335 nm

SMILES: CCCC1=Cc2nc1ccc1[nH]c(cc1CCC)c1nc(c3ccccc3c3[nH]c2cc3CCC)C(CCC)=C1
- absorption maximum (in Cc1ccccc1): 762 nm

SMILES: COC1(OC)C2(Cl)c3nc4cc(-c5cccs5)ccc4nc3C1(Cl)C1C[C@H]3[C@@H](CC12)C1(Cl)c2nc4ccc(-c5cccs5)cc4nc2C3(Cl)C1(OC)OC (stereo not given in full)
- absorption maximum (in CC#N): 366 nm
- absorption maximum (in CCCCCC): 358 nm
- absorption maximum (in CCOC(C)=O): 362 nm
- absorption maximum (in CO): 368 nm
- absorption maximum (in Cc1ccccc1): 362 nm
- absorption maximum (in ClC(Cl)Cl): 366 nm
- absorption maximum (in ClCCl): 367 nm

SMILES: CC1CC=C(c2ccc(-c3cccs3)s2)CC1 (stereo not given)
- absorption maximum (in C1CCOC1): 341 nm
- absorption maximum (in CC#N): 341 nm
- absorption maximum (in CCCCCC): 341 nm
- absorption maximum (in CCO): 336 nm
- absorption maximum (in OCCOCCO): 341 nm
- absorption maximum (in c1ccncc1): 343 nm

SMILES: COC(=O)CNC(=O)CCNc1cccc2ccccc12
- absorption maximum (in CCO): 330 nm

SMILES: CCN1/C(=C/C=C/C2=[N+](C)c3ccccc3C2(C)C)C(C)(C)c2ccccc21
- absorption maximum (in CS(C)=O): 552 nm

SMILES: CCC1=C(C)C2=C(c3cc(C(=O)Cl)cc(C(=O)Cl)c3)c3c(C)c(CC)c(C)n3[B-](F)(F)[N+]2=C1C
- absorption maximum (in C1CCOC1): 528 nm
- absorption maximum (in CC#N): 524 nm
- absorption maximum (in CN(C)C=O): 529 nm
- absorption maximum (in Cc1ccccc1): 531 nm
- absorption maximum (in ClC(Cl)Cl): 532 nm

SMILES: COc1cccc(OC)c1-c1c2ccc(=[N+]3CCCCC3)cc-2oc2cc(N3CCCCC3)ccc12
- absorption maximum (in ClCCl): 565 nm

SMILES: COc1ccc(N(c2ccccc2)c2ccc3ccc4c(N(c5ccccc5)c5ccc(OC)cc5)ccc5ccc2c3c54)cc1
- absorption maximum (in ClCCl): 432 nm

SMILES: O=C(O)c1cc2c(ccc3ccccc32)oc1=O
- absorption maximum (in C1COCCO1): 372 nm
- absorption maximum (in CC#N): 376 nm
- absorption maximum (in CCCCO): 372 nm
- absorption maximum (in CCO): 363 nm
- absorption maximum (in CO): 364 nm
- absorption maximum (in O): 376 nm
